Values quoted from earlier work, collected in patent publication US11503831B2, “Arthropoda repellent composition” (SanderStrothmann GmbH, priority 2019, dated 2022).

Conditions: in vivo

Share of topically applied dose absorbed by the skin: approximately 50%
Time to peak plasma levels: 1 h
Structure (SMILES): CCN(CC)C(=O)c1cccc(C)c1 [N,N-diethyl toluamide, N,N′-diethyl toluamide]
